# Measured values as given in patent publication US12723063B2, “GIPR-agonist compounds” (Eli Lilly and Company, priority 2019, dated 2026).
# *1 amine or outer side, *2 acyl side, *3 side chain or, on linkers, in order; H or OH if unused. Where a SMILES comes first, the peptide text is derived from it. Side-chain parts run from the residue outwards. [ ]: non-standard residue; d: D form. The star is where a group is joined. C20 diacid = O=C(O)CCCCCCCCCCCCCCCCCCC(=O)*; C18 diacid = O=C(O)CCCCCCCCCCCCCCCCC(=O)*; αMePhe(2-F) = C[C@](N)(Cc1ccccc1F)C(=O)O; γGlu = O=C(O)[C@H](CCC(=O)[*:2])N[*:1]; 4Pal = N[C@@H](Cc1ccncc1)C(=O)O; αMeL = CC(C)C[C@](C)(N)C(=O)O; Iva = CC[C@](C)(N)C(=O)O; Orn = NCCC[C@H](N)C(=O)O; AEEA = NCCOCCOCC(=O)O; Aib = CC(C)(N)C(=O)O
# Biological target: T1, human GLP-1R (Homo sapiens, UniProt P43220)
# T1 construct: expressed in transfected cells; crude membranes
# Test: [125I]-GLP-1 binding, SPA with WGA beads, 0.1% bacitracin
# Conditions: geometric mean, read-out: hGLP1R Ki
# How it was run: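 Binding buffer was 25 mM HEPES pH 7.4 with 2.5 mM CaCl2, 1 mM MgCl2, 0.1% (w/v) bacitracin, 0.003% Tween-20 and EDTA-free protease inhibitors. Four-parameter regression gave IC50, converted to Ki (geometric mean, SEM, n independent days).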
# T1 sequence (P43220 24-463): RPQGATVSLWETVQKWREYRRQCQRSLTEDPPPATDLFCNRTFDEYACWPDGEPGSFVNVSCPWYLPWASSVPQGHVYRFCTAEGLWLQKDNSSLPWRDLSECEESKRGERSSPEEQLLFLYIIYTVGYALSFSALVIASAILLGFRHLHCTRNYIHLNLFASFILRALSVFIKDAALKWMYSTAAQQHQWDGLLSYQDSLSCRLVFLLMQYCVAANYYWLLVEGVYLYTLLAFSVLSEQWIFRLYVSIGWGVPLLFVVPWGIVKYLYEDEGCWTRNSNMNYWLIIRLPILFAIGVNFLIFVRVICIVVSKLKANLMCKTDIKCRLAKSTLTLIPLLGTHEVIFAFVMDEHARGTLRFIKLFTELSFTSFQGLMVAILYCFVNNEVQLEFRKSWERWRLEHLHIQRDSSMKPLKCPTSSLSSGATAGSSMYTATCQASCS
row,Compound,Ki [nM]
1,CC[C@H](C)[C@H](NC(=O)[C@H](CC(C)C)NC(=O)[C@@H](NC(=O)CNC(=O)[C@H](CCC(=O)O)NC(=O)C(C)(C)NC(=O)[C@@H](N)Cc1ccc(O)cc1)[C@@H](C)O)C(=O)N[C@@H](CO)C(=O)N[C@@H](CC(=O)O)C(=O)N[C@@H](Cc1ccc(O)cc1)C(=O)N[C@@H](CO)C(=O)N[C@H](C(=O)N[C@@](C)(CC(C)C)C(=O)N[C@@H](CC(C)C)C(=O)N[C@@H](CC(=O)O)C(=O)N[C@@H](CCCCN)C(=O)N[C@@H](CCCCNC(=O)COCCOCCNC(=O)COCCOCCNC(=O)CC[C@H](NC(=O)CCCCCCCCCCCCCCCCCCC(=O)O)C(=O)O)C(=O)N[C@@H](Cc1c[nH]cn1)C(=O)N[C@@H](CCC(N)=O)C(=O)NC(C)(C)C(=O)N[C@@H](CC(=O)O)C(=O)N[C@@H](Cc1ccccc1)C(=O)N[C@H](C(=O)N[C@@H](CCC(=O)O)C(=O)N[C@@H](Cc1ccncc1)C(=O)N[C@@H](CC(C)C)C(=O)N[C@@H](CC(C)C)C(=O)N[C@@H](CCC(=O)O)C(=O)N[C@@H](C)C(=O)NCC(=O)N1CCC[C@H]1C(=O)N[C@@H](CO)C(=O)N[C@@H](CO)C(=O)NCC(=O)N[C@@H](C)C(=O)N1CCC[C@H]1C(=O)N1CCC[C@H]1C(=O)N1CCC[C@H]1C(=O)N[C@@H](CO)C(N)=O)C(C)C)[C@@H](C)CC [Example 89] (H-Y[Aib]EGTLISDYSI[αMeL]LDKK([AEEA-AEEA-γGlu-C20 diacid])HQ[Aib]DFVE[4Pal]LLEAGPSSGAPPPS-NH2),294
2,CC[C@H](C)[C@H](NC(=O)[C@H](CO)NC(=O)[C@H](Cc1ccc(O)cc1)NC(=O)[C@H](CC(=O)O)NC(=O)[C@H](CO)NC(=O)[C@@H](NC(=O)[C@](C)(Cc1ccccc1F)NC(=O)[C@@H](NC(=O)CNC(=O)[C@H](CCC(=O)O)NC(=O)C(C)(C)NC(=O)[C@@H](N)Cc1ccc(O)cc1)[C@@H](C)O)[C@@H](C)CC)C(=O)N[C@@H](C)C(=O)N[C@@H](CC(C)C)C(=O)N[C@@H](CC(=O)O)C(=O)N[C@@H](CCCCN)C(=O)N[C@H](C(=O)N[C@@H](Cc1c[nH]cn1)C(=O)N[C@@H](CCC(N)=O)C(=O)NC(C)(C)C(=O)N[C@@H](CC(=O)O)C(=O)N[C@@H](Cc1ccccc1)C(=O)N[C@H](C(=O)N[C@@H](CCC(=O)O)C(=O)N[C@@H](Cc1ccc(O)cc1)C(=O)N[C@@H](CCCCNC(=O)COCCOCCNC(=O)COCCOCCNC(=O)CC[C@H](NC(=O)CCCCCCCCCCCCCCCCCCC(=O)O)C(=O)O)C(=O)N[C@@H](CC(C)C)C(=O)N[C@@H](CCC(=O)O)C(=O)NCC(=O)NCC(=O)N1CCC[C@H]1C(=O)N[C@@H](CO)C(=O)N[C@@H](CO)C(=O)NCC(=O)N[C@@H](C)C(=O)N1CCC[C@H]1C(=O)N1CCC[C@H]1C(=O)N1CCC[C@H]1C(=O)N[C@@H](CO)C(N)=O)C(C)C)[C@@H](C)CC [Example 99] (H-Y[Aib]EGT[αMePhe(2-F)]ISDYSIALDKIHQ[Aib]DFVEYK([AEEA-AEEA-γGlu-C20 diacid])LEGGPSSGAPPPS-NH2),> 901
3,CC[C@H](C)[C@H](NC(=O)[C@H](CO)NC(=O)[C@H](Cc1ccc(O)cc1)NC(=O)[C@H](CC(=O)O)NC(=O)[C@H](CO)NC(=O)[C@@H](NC(=O)[C@H](Cc1ccccc1)NC(=O)[C@@H](NC(=O)CNC(=O)[C@H](CCC(=O)O)NC(=O)[C@@H](C)NC(=O)[C@@H](N)Cc1ccc(O)cc1)[C@@H](C)O)[C@@H](C)CC)C(=O)N[C@@H](CC(C)C)C(=O)N[C@@H](CC(C)C)C(=O)N[C@@H](CC(=O)O)C(=O)N[C@@H](CCCCN)C(=O)N[C@@H](CCCCNC(=O)COCCOCCNC(=O)COCCOCCNC(=O)CC[C@H](NC(=O)CCCCCCCCCCCCCCCCC(=O)O)C(=O)O)C(=O)N[C@@H](C)C(=O)N[C@@H](CCC(N)=O)C(=O)NC(C)(C)C(=O)N[C@@H](CC(=O)O)C(=O)N[C@@H](Cc1ccccc1)C(=O)N[C@H](C(=O)N[C@@H](CC(N)=O)C(=O)N[C@@H](Cc1ccncc1)C(=O)N[C@@H](CC(C)C)C(=O)N[C@@H](CC(C)C)C(=O)N[C@@H](C)C(=O)N[C@@H](CCC(N)=O)C(=O)NCC(=O)N1CCC[C@H]1C(=O)N[C@@H](CO)C(=O)N[C@@H](CO)C(=O)NCC(=O)N[C@@H](C)C(=O)N1CCC[C@H]1C(=O)N1CCC[C@H]1C(=O)N1CCC[C@H]1C(=O)N[C@@H](CO)C(N)=O)C(C)C [Example 18] (H-Y[dA]EGTFISDYSILLDKK([AEEA-AEEA-γGlu-C18 diacid])AQ[Aib]DFVN[4Pal]LLAQGPSSGAPPPS-NH2),158
4,CC[C@H](C)[C@H](NC(=O)[C@H](CO)NC(=O)[C@H](Cc1ccc(O)cc1)NC(=O)[C@H](CC(=O)O)NC(=O)[C@H](CO)NC(=O)[C@@H](NC(=O)[C@](C)(CC)NC(=O)[C@@H](NC(=O)CNC(=O)[C@H](CCC(=O)O)NC(=O)C(C)(C)NC(=O)[C@@H](N)Cc1ccc(O)cc1)[C@@H](C)O)[C@@H](C)CC)C(=O)N[C@@](C)(CC(C)C)C(=O)N[C@@H](CC(C)C)C(=O)N[C@@H](CC(=O)O)C(=O)N[C@@H](CCCN)C(=O)N[C@@H](CCCCNC(=O)COCCOCCNC(=O)COCCOCCNC(=O)CC[C@H](NC(=O)CCCCCCCCCCCCCCCCCCC(=O)O)C(=O)O)C(=O)N[C@@H](Cc1c[nH]cn1)C(=O)N[C@@H](CCC(N)=O)C(=O)NC(C)(C)C(=O)N[C@@H](CC(=O)O)C(=O)N[C@@H](Cc1ccccc1)C(=O)N[C@H](C(=O)N[C@@H](CCC(=O)O)C(=O)N[C@@H](Cc1ccncc1)C(=O)N[C@@H](CC(C)C)C(=O)N[C@@H](CC(C)C)C(=O)N[C@@H](CCC(=O)O)C(=O)N[C@H](C(=O)NCC(=O)N1CCC[C@H]1C(=O)N[C@@H](CO)C(=O)N[C@@H](CO)C(=O)NCC(=O)N[C@@H](C)C(=O)N1CCC[C@H]1C(=O)N1CCC[C@H]1C(=O)N1CCC[C@H]1C(=O)N[C@@H](CO)C(N)=O)[C@@H](C)O)C(C)C [Example 77] (H-Y[Aib]EGT[Iva]ISDYSI[αMeL]LD[Orn]K([AEEA-AEEA-γGlu-C20 diacid])HQ[Aib]DFVE[4Pal]LLETGPSSGAPPPS-NH2),> 905
5,CC[C@H](C)[C@H](NC(=O)[C@H](CO)NC(=O)[C@H](Cc1ccc(O)cc1)NC(=O)[C@H](CC(=O)O)NC(=O)[C@H](CO)NC(=O)[C@@H](NC(=O)[C@](C)(Cc1ccccc1F)NC(=O)[C@@H](NC(=O)CNC(=O)[C@H](CCC(=O)O)NC(=O)C(C)(C)NC(=O)[C@@H](N)Cc1ccc(O)cc1)[C@@H](C)O)[C@@H](C)CC)C(=O)N[C@@H](C)C(=O)N[C@@H](CC(C)C)C(=O)N[C@@H](CC(=O)O)C(=O)N[C@@H](CCCCN)C(=O)N[C@H](C(=O)N[C@@H](Cc1c[nH]cn1)C(=O)N[C@@H](CCC(N)=O)C(=O)NC(C)(C)C(=O)N[C@@H](CC(=O)O)C(=O)N[C@@H](Cc1ccccc1)C(=O)N[C@H](C(=O)N[C@@H](CCC(=O)O)C(=O)N[C@@H](Cc1ccncc1)C(=O)N[C@@H](CCCCNC(=O)COCCOCCNC(=O)COCCOCCNC(=O)CC[C@H](NC(=O)CCCCCCCCCCCCCCCCCCC(=O)O)C(=O)O)C(=O)N[C@@H](CC(C)C)C(=O)N[C@@H](CCC(=O)O)C(=O)N[C@@H](CCC(N)=O)C(=O)NCC(=O)N1CCC[C@H]1C(=O)N[C@@H](CO)C(=O)N[C@@H](CO)C(=O)NCC(=O)N[C@@H](C)C(=O)N1CCC[C@H]1C(=O)N1CCC[C@H]1C(=O)N1CCC[C@H]1C(=O)N[C@@H](CO)C(N)=O)C(C)C)[C@@H](C)CC [Example 114] (H-Y[Aib]EGT[αMePhe(2-F)]ISDYSIALDKIHQ[Aib]DFVE[4Pal]K([AEEA-AEEA-γGlu-C20 diacid])LEQGPSSGAPPPS-NH2),> 921
